Results from US9265253B2, “Use of macrocyclic picolinamides as fungicides” (DOW AGROSCIENCES LLC, priority 2013, dated 2016).

How the values were obtained:
Assay type in all cases: in vivo
Cercospora beticola = test: Leaf Spot of Sugar Beets (CERCBE) disease control; conditions: Cercospora beticola, topical, 24 h, 1 Day Protectant, sugar beet, read-out: Disease Control CERCBE 1 DP
Method: Technical grades of materials were dissolved in acetone, which were then mixed with nine volumes of water containing 110 ppm Triton X-100. The fungicide solutions were applied onto wheat seedlings using an automated booth sprayer to run-off. All sprayed plants were allowed to air dry prior to further handling. All fungicides were evaluated using the aforementioned method for their activity vs. all target diseases. Wheat leaf blotch and brown rust activity were also evaluated using track spray applications, in which case the fungicides were formulated as EC formulations, containing 0.1% Trycol 5941 in the spray solutions. Wheat plants (variety Yuma) were grown from seed in a greenhouse in 50% mineral soil/50% soil-less Metro mix until the first leaf was fully emerged, with 7-10 seedlings per pot. These plants were inoculated with an aqueous spore suspension of Septoria tritici either prior to or after fungicide treatments. After inoculation the plants were kept in 100% relative humidity (one day in a dark dew chamber followed by two to three days in a lighted dew chamber at 20° C.) to permit spores to germinate and infect the leaf. The plants were then transferred to a greenhouse set at 20° C. for disease to develop. When disease symptoms were fully expressed on the 1st leaves of untreated plants, infection levels were assessed on a scale of 0 to 100 percent disease severity. Percent disease control was calculated using the ratio of disease severity on treated plants relative to untreated plants. Sugar beet plants (variety HH88) were grown in soil-less Metro mix and trimmed regularly to maintain a uniform plant size prior to test. Plants were inoculated with a spore suspension 24 hr after fungicide treatments. Inoculated plants were kept in a dew chamber at 22° C. for 48 hr then incubated in a greenhouse set at 24° C. under a clear plastic hood with bottom ventilation until disease symptoms were fully expressed. Fungicide formulation, application and disease assessment on the sprayed leaves followed the procedures as described in the Example A.

Rhyncosporium secalis = test: Barley Scald (RHYNSE) disease control; conditions: Hordeum vulgare, 24 h, 1 Day Protectant, read-out: Disease Control RHYNSE 1 DP
Method: Technical grades of materials were dissolved in acetone, which were then mixed with nine volumes of water containing 110 ppm Triton X-100. The fungicide solutions were applied onto wheat seedlings using an automated booth sprayer to run-off. All sprayed plants were allowed to air dry prior to further handling. All fungicides were evaluated using the aforementioned method for their activity vs. all target diseases. Wheat leaf blotch and brown rust activity were also evaluated using track spray applications, in which case the fungicides were formulated as EC formulations, containing 0.1% Trycol 5941 in the spray solutions. Wheat plants (variety Yuma) were grown from seed in a greenhouse in 50% mineral soil/50% soil-less Metro mix until the first leaf was fully emerged, with 7-10 seedlings per pot. These plants were inoculated with an aqueous spore suspension of Septoria tritici either prior to or after fungicide treatments. After inoculation the plants were kept in 100% relative humidity (one day in a dark dew chamber followed by two to three days in a lighted dew chamber at 20° C.) to permit spores to germinate and infect the leaf. The plants were then transferred to a greenhouse set at 20° C. for disease to develop. When disease symptoms were fully expressed on the 1st leaves of untreated plants, infection levels were assessed on a scale of 0 to 100 percent disease severity. Percent disease control was calculated using the ratio of disease severity on treated plants relative to untreated plants. Barley seedlings (variety Harrington) were propagated in soil-less Metro mix, with each pot having 8 to 12 plants, and used in the test when first leaf was fully emerged. Test plants were inoculated by an aqueous spore suspension of Rhyncosporium secalis 24 hr after fungicide treatments. After inoculation the plants were kept in a dew room at 20° C. with 100% relative humidity for 48 hr. The plants were then transferred to a greenhouse set at 20° C. for disease to develop. Fungicide formulation, application and disease assessment on the sprayed leaves followed the procedures as described in the Example A.

[1] = test system: Magnaporthe grisea; Anamorph: Pyricularia oryzae; test: whole plant or invertebrate; conditions: Pyricularia oryzae, topical, 24 h, read-out: Disease Control PYRIOR 1 DP
[2] = test system: Glomerella lagenarium; Anamorph: Colletotrichum lagenarium; test: Cucumber Anthracnose (COLLLA) disease control; conditions: Colletotrichum orbiculare, topical, 24 h, 1 Day Protectant, read-out: Disease Control COLLLA 1 DP
Method: Technical grades of materials were dissolved in acetone, which were then mixed with nine volumes of water containing 110 ppm Triton X-100. The fungicide solutions were applied onto wheat seedlings using an automated booth sprayer to run-off. All sprayed plants were allowed to air dry prior to further handling. All fungicides were evaluated using the aforementioned method for their activity vs. all target diseases. Wheat leaf blotch and brown rust activity were also evaluated using track spray applications, in which case the fungicides were formulated as EC formulations, containing 0.1% Trycol 5941 in the spray solutions. Wheat plants (variety Yuma) were grown from seed in a greenhouse in 50% mineral soil/50% soil-less Metro mix until the first leaf was fully emerged, with 7-10 seedlings per pot. These plants were inoculated with an aqueous spore suspension of Septoria tritici either prior to or after fungicide treatments. After inoculation the plants were kept in 100% relative humidity (one day in a dark dew chamber followed by two to three days in a lighted dew chamber at 20° C.) to permit spores to germinate and infect the leaf. The plants were then transferred to a greenhouse set at 20° C. for disease to develop. When disease symptoms were fully expressed on the 1st leaves of untreated plants, infection levels were assessed on a scale of 0 to 100 percent disease severity. Percent disease control was calculated using the ratio of disease severity on treated plants relative to untreated plants. Cucumber seedlings (variety Bush Pickle) were propagated in soil-less Metro mix, with each pot having one plant, and used in the test when 12 to 14 days old. Test plants were inoculated with an aqueous spore suspension of Colletotrichum lagenarium 24 hr after fungicide treatments. After inoculation the plants were kept in a dew room at 22° C. with 100% relative humidity for 48 hr to permit spores to germinate and infect the leaf. The plants were then transferred to a growth room set at 22° C. for disease to develop. Fungicide formulation, application and disease assessment on the sprayed leaves followed the procedures as described in the Example A.

SMILES	pest or weed control at 100 ppm (Cercospora beticola)	pest or weed control at 100 ppm (Rhyncosporium secalis)	pest or weed control at 100 ppm [1]	pest or weed control at 100 ppm [2]
COc1ccnc(C(=O)N[C@H]2CCC[C@H](Cc3ccc(F)cc3)[C@@H](OCC3CC3)[C@H](C)OC2=O)c1OC(C)=O [Compound F67]	80 to 100%	80 to 100%	80 to 100%	80 to 100%
CCCO[C@@H]1[C@@H](Cc2ccccc2)CCC[C@H](NC(=O)c2nccc(OC)c2OC(=O)CCOC)C(=O)O[C@H]1C [Compound F198]	80 to 100%	80 to 100%	80 to 100%	80 to 100%
COc1ccnc(C(=O)N[C@H]2CCC[C@H](CC(F)F)[C@@H](Oc3ccccc3)[C@H](C)OC2=O)c1OCOC(C)=O [Compound F138]	80 to 100%	0 to 80%	80 to 100%	80 to 100%
CCO[C@@H]1[C@@H](Cc2ccccc2)CCC[C@H](NC(=O)c2nccc(OC)c2OC(C)=O)C(=O)O[C@H]1C [Compound F87]	80 to 100%	80 to 100%	80 to 100%	80 to 100%
COc1ccnc(C(=O)N[C@H]2CCC[C@H](Cc3ccccc3)[C@@H](OCC3CC3)[C@H](C)OC2=O)c1OCOC(=O)C(C)C [Compound F152]	80 to 100%	80 to 100%	80 to 100%	80 to 100%
C=C[C@H]1CCC[C@H](NC(=O)c2nccc(OC)c2OCOC(C)=O)C(=O)O[C@@H](C)[C@@H]1Oc1ccccc1 [Compound F146]	80 to 100%	80 to 100%	80 to 100%	80 to 100%
COc1ccnc(C(=O)N[C@H]2CCC[C@H](Cc3ccccc3)[C@@H](OCC(C)C)[C@H](C)OC2=O)c1OC(C)=O [Compound F70]	80 to 100%	80 to 100%	80 to 100%	80 to 100%
COCC[C@H]1CCC[C@H](NC(=O)c2nccc(OC)c2OC(C)=O)C(=O)O[C@@H](C)[C@@H]1Oc1ccccc1 [Compound F78]	80 to 100%	80 to 100%	80 to 100%	80 to 100%
CCCO[C@@H]1[C@@H](Cc2ccccc2)CCC[C@H](NC(=O)c2nccc(OC)c2OCOC(=O)COCC)C(=O)O[C@H]1C [Compound F174]	80 to 100%	80 to 100%	80 to 100%	80 to 100%
COCC[C@H]1CCC[C@H](NC(=O)c2nccc(OC)c2OCOC(C)=O)C(=O)O[C@@H](C)[C@@H]1Oc1ccccc1 [Compound F130]	0 to 80%	80 to 100%	80 to 100%	80 to 100%
CCCO[C@@H]1[C@@H](Cc2ccccc2)CCC[C@H](NC(=O)c2nccc(OC)c2OCOC(C)=O)C(=O)O[C@H]1C [Compound F109]	80 to 100%	80 to 100%	80 to 100%	80 to 100%
